According to PMC9598282 (Antibiotics, 2022):
Like-named read-outs stand apart in the source and are kept apart here. Bridge positions count the residues as written; N and C are the ends. Square brackets hold non-standard residues; d marks the D form. Peptide text beside a SMILES is read from it. Dab = NCC[C@H](N)C(=O)O

Tests used:
[1] = tested on: P. aeruginosa 101243; assay: Checkerboard assay; format: cell-based, Pseudomonas aeruginosa
Description: (§1) The adjuvant properties of the guanidinylated polymyxins were evaluated using the checkerboard assay as previously described. The bacterial solution was prepared as described in the antimicrobial susceptibility assay. The antibiotic of interest and the adjuvant were serially diluted two-fold along the x- and y-axis on a 96-well plate, respectively, resulting in varying concentrations of both agents in each well. Equal volumes of bacterial solution were added to the designated wells. The well consisting of bacterial solution served as the positive control, while the wells containing only media served as the negative control. The plate was then incubated at 37 °C for 18 h. After incubation, an Emax Plus microplate reader (Molecular Devices, Union City, CA, USA) was used to measure the OD at a wavelength of 590 nm to confirm the turbidity. The fractional inhibitory concentration (FIC) index was then determined to establish the relationship between the antibiotic and adjuvant. The FIC index corresponds to the sum of the FICs of the antibiotic and adjuvant. The FIC of each agent is calculated by dividing its MIC when it is used in combination by its MIC when used alone. FIC indices ≤0.5, 0.5 < x ≤ 4 and >4 indicate synergy, additivity and antagonism, respectively.

[2] = tested on: P. aeruginosa P262-101856; assay: Checkerboard assay; format: cell-based, Pseudomonas aeruginosa
Description: as §1

[3] = tested on: P. aeruginosa P259-96918; assay: Checkerboard assay; format: cell-based, Pseudomonas aeruginosa
Description: as §1

[4] = tested on: P. aeruginosa P264-104354; assay: Checkerboard assay; format: cell-based, Pseudomonas aeruginosa
Description: as §1

[5] = tested on: E. coli 94393; assay: Checkerboard assay; format: cell-based, Escherichia coli
Description: as §1

[6] = tested on: E. cloacae 121187; assay: microbe, parasite or virus in culture; format: cell-based, Enterobacter cloacae
Description: as §1

[7] = tested on: E. cloacae 118564; assay: Checkerboard assay; format: cell-based, Enterobacter cloacae
Description: as §1

[8] = tested on: A. baumannii AB031; assay: Checkerboard assay; format: cell-based, Acinetobacter baumannii
Description: as §1

[9] = tested on: E. coli ATCC 25922; format: cell-based, Escherichia coli; conditions: ATCC 25922, 18 h
Description: (§2) For the preparation of the bacterial solution, overnight grown culture was diluted in 0.85% saline solution, adjusted to 0.5 McFarland turbidity and further diluted in Mueller–Hinton broth for inoculation to a final concentration of 5 × 10^5 colony forming units/mL (CFU/mL). The agents were serially diluted two-fold in a 96-well plate, and equal volumes of bacterial solution were subsequently added to the designated wells. The well consisting of bacterial solution served as the positive control, while the well containing only media served as the negative control. The plate was then incubated at 37 °C for 18 h. After incubation, an Emax Plus microplate reader (Molecular Devices, Union City, CA, USA) was used to measure the optical density (OD) at a wavelength of 590 nm to confirm the turbidity. The antibacterial activity corresponded to the MIC, which is defined as the lowest concentration of the agent necessary to inhibit visible bacterial growth.

[10] = tested on: P. aeruginosa 114228; assay: microbe, parasite or virus in culture; format: cell-based, Pseudomonas aeruginosa
Procedure, shortened: (§3)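 Antibiotic and guanidinylated polymyxin adjuvant were two-fold serially diluted across perpendicular axes, combined with bacterial suspension and incubated 18 h at 37 °C. Turbidity was read as OD590. FIC index is the sum of each agent's MIC in combination divided by its MIC alone: ≤0.5 synergy, 0.5–4 additivity, >4 antagonism.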

[11] = tested on: A. baumannii 110193; assay: microbe, parasite or virus in culture; format: cell-based, Acinetobacter baumannii
Procedure, shortened: as §3

[12] = tested on: A. baumannii 92247; assay: microbe, parasite or virus in culture; format: cell-based, Acinetobacter baumannii
Procedure, shortened: as §3

[13] = tested on: A. baumannii AB027; assay: microbe, parasite or virus in culture; format: cell-based, Acinetobacter baumannii
Procedure, shortened: as §3

[14] = tested on: P. aeruginosa PAO1; format: cell-based, Pseudomonas aeruginosa; conditions: wild-type
Description: as §2

[15] = tested on: P. aeruginosa 114228; format: cell-based, Pseudomonas aeruginosa; conditions: 114228, 18 h
Description: as §2

[16] = tested on: P. aeruginosa PA 88949; format: cell-based, Pseudomonas aeruginosa
Description: as §1

[17] = tested on: P. aeruginosa PA 86052; format: cell-based, Pseudomonas aeruginosa; conditions: PA 86052, 18 h
Description: as §1

[18] = tested on: P. aeruginosa PA 109084; format: cell-based, Pseudomonas aeruginosa
Description: as §1

[19] = tested on: P. aeruginosa PA 107092; format: cell-based, Pseudomonas aeruginosa
Description: as §1

[20] = agent alone, one value per checkerboard plate
[21] = adjuvant at 0.5 μg/mL as printed
[22] = with 8 μM avibactam, adjuvant at 2 (PMBN, GCol), 1 (GPMB) μg/mL

CC(C)C[C@@H]1NC(=O)[C@@H](Cc2ccccc2)NC(=O)[C@H](CCN)NC(=O)[C@@H](NC(=O)[C@H](CCN)NC(=O)[C@@H](N)[C@@H](C)O)CCNC(=O)[C@H]([C@@H](C)O)NC(=O)[C@H](CCN)NC(=O)[C@H](CCN)NC1=O [PMBN, polymyxin B nonapeptide] (H-T[Dab][Dab][Dab][dF]L[Dab][Dab]T; lactam 3-C (inferred); N-terminus assumed)
128: Fold-potentiation of rifampicin ([3]; with 4 μg/mL adjuvant)
32: Fold-potentiation of rifampicin ([11]; with 1 μg/mL adjuvant) | Fold-potentiation of rifampicin ([12]; with 8 μg/mL adjuvant)
> 256 µg/mL: MIC alone [1, 20] | MIC alone [2, 20] | MIC alone [3, 20] | MIC alone [4, 20] | MIC alone [5, 20] | MIC alone [6, 20] | MIC alone [7, 20] | MIC alone [8, 20] | MIC alone [11, 20] | MIC alone [13, 20]
>256 µg/mL: MIC [9] | MIC [15]
64: Fold-potentiation of rifampicin ([4]; with 2 μg/mL adjuvant) | Fold-potentiation of rifampicin ([13]; with 8 μg/mL adjuvant)
256 µg/mL: MIC alone ([6]; 121187, 18 h) | MIC alone ([10]; 114228, 18 h) | MIC alone ([11]; 110193, 18 h) | MIC alone ([12]; 92247, 18 h) | MIC alone ([13]; AB027, 18 h)
2: Fold-potentiation of aztreonam ([1]; with 8 μg/mL adjuvant) | Fold-potentiation of aztreonam ([4]; with 2 μg/mL adjuvant) | Fold potentiation of aztreonam ([13]; with 8 μg/mL adjuvant) | Fold-potentiation of ceftazidime ([13]; with 8 μg/mL adjuvant)
128 µg/mL: MIC [14]
8: Fold-potentiation of ceftazidime ([1]; with 8 μg/mL adjuvant) | Fold-potentiation of rifampicin ([1]; with 8 μg/mL adjuvant) | Fold-potentiation of aztreonam ([2]; with 8 μg/mL adjuvant) | Fold-potentiation of aztreonam ([3]; with 4 μg/mL adjuvant) | Fold-potentiation of erythromycin ([3]; with 4 μg/mL adjuvant) | Fold-potentiation of erythromycin ([5]; with 2 μg/mL adjuvant) | Fold-potentiation of rifampicin ([5]; with 2 μg/mL adjuvant) | Fold-potentiation of rifampicin ([7]; with 8 μg/mL adjuvant) | Fold-potentiation of rifampicin ([8]; with 0.5 μg/mL adjuvant) | Fold-potentiation of ceftazidime ([10]; with 8 μg/mL adjuvant) | Fold-potentiation of rifampicin ([10]; with 8 μg/mL adjuvant) | Fold potentiation of ceftazidime ([19]; adjuvant at 2 (PMBN, GCol), 1 (GPMB) μg/mL) | Fold potentiation of ceftazidime [19, 22]
1: Fold-potentiation of erythromycin ([1]; with 8 μg/mL adjuvant) | Fold-potentiation of ceftazidime ([4]; with 2 μg/mL adjuvant) | Fold-potentiation of erythromycin ([4]; with 2 μg/mL adjuvant) | Fold-potentiation of erythromycin ([6]; with 8 μg/mL adjuvant) | Fold-potentiation of rifampicin ([6]; with 8 μg/mL adjuvant) | Fold potentiation of aztreonam ([8]; with 0.5 μg/mL adjuvant) | Fold-potentiation of ceftazidime ([8]; with 0.5 μg/mL adjuvant) | Fold-potentiation of aztreonam ([10]; with 8 μg/mL adjuvant) | Fold-potentiation of erythromycin ([10]; with 8 μg/mL adjuvant) | Fold-potentiation of ceftazidime ([11]; with 1 μg/mL adjuvant) | Fold potentiation of aztreonam ([12]; with 8 μg/mL adjuvant) | Fold-potentiation of ceftazidime ([12]; with 8 μg/mL adjuvant) | Fold-potentiation of erythromycin ([12]; with 8 μg/mL adjuvant) | Fold potentiation of aztreonam [16, 21] | Fold potentiation of ceftazidime [16, 21]
16: Fold-potentiation of erythromycin ([2]; with 8 μg/mL adjuvant) | Fold-potentiation of rifampicin ([2]; with 8 μg/mL adjuvant) | Fold-potentiation of erythromycin ([13]; with 8 μg/mL adjuvant) | Fold potentiation of ceftazidime ([18]; adjuvant at 1 μg/mL as printed) | Fold potentiation of aztreonam ([18]; adjuvant at 1 (PMBN, GCol), 0.5 (GPMB) μg/mL as printed) | Fold potentiation of aztreonam ([18]; with 8 μM avibactam, adjuvant at 2 (PMBN), 0.5 (GCol, GPMB) μg/mL as printed)
16 µM: MIC adjuvant alone ([16]; PA 88949, 18 h) | MIC adjuvant alone [17]
56 µM: MIC adjuvant alone ([18]; PA 109084, 18 h) | MIC adjuvant alone ([19]; PA 107092, 18 h)
4: Fold-potentiation of ceftazidime ([2]; with 8 μg/mL adjuvant) | Fold-potentiation of ceftazidime ([3]; with 4 μg/mL adjuvant) | Fold-potentiation of erythromycin ([7]; with 8 μg/mL adjuvant) | Fold-potentiation of erythromycin ([8]; with 0.5 μg/mL adjuvant) | Fold-potentiation of erythromycin ([11]; with 1 μg/mL adjuvant) | Fold potentiation of ceftazidime ([18]; with 8 μM avibactam, adjuvant at 2 μg/mL as printed) | Fold potentiation of aztreonam ([19]; adjuvant at 2 μg/mL as printed) | Fold potentiation of aztreonam [19, 22]
